Values of other authors, collected in US20230131804A1, “FARNESOID X RECEPTOR AGONISTS FOR THE TREATMENT OF DISEASE” (Metacrine, Inc., priority 2020, published 2023).
Entries after “also recorded” stand apart in the source; their conditions may differ.

Details: published clinical studies, higher administered doses; cited from earlier work

## CC[C@H]1[C@@H](O)[C@@H]2[C@H](CC[C@]3(C)[C@@H]([C@H](C)CCC(=O)O)CC[C@@H]23)[C@@]2(C)CC[C@@H](O)C[C@@H]12 [OCA, Obeticholic acid]
  adverse side effects: pruritis, increased LDL cholesterol and liver toxicity; also recorded: adverse effects of increased LDL cholesterol and liver toxicity
